This passage reports DC50 and IC50 results from EP4567035A1, “NOVEL COMPOUND AS HYPOXIA-INDUCIBLE FACTOR 1(HIF-1) INHIBITOR OR VASCULAR ENDOTHELIAL GROWTH FACTOR (VEGF) INHIBITOR, AND PHARMACEUTICAL COMPOSITION COMPRISING SAME” (Nextgen Bioscience Co., Ltd., priority 2022, dated 2024).

One assay has as its target T1, HIF-1α (Homo sapiens, UniProt Q16665).
T1 construct: endogenous in cells; host or cells: ARPE-19 (ATCC CRL-2302)
Description: Analysis of HIF-1α protein expression (Western blot) in ARPE-19 cells under mixed hypoxic condition. Particulars: concentration range at which HIF-1α expression is reduced by 50% vs untreated control. The assay is classed as cell-based. A digest of the protocol: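 ARPE-19 cells were pretreated 16 h or 2 h with compound (0.1 nM–10 µM, serum-free DMEM/F12), then held 1 h or 24 h in mixed hypoxia (1% O2 plus CoCl2). HIF-1α was quantified by Western blot against β-actin; the concentration range giving ≥50% reduction vs untreated control was reported.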
On the technique in general: Immunoblotting shows a protein as a band on a membrane.

Another assay relates to VEGF. Nature of the assay: Evaluation of VEGF protein secretion level (Human VEGF ELISA) in ARPE-19 cell medium under hypoxic conditions. It is filed as cell-based. The essentials: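 Human ARPE-19 cells were pretreated 2 h with compound (0.1 nM–10 µM, in DMEM/F12 with 1% FBS), then held 24 h in hypoxia (1% O2, 5% CO2). Secreted VEGF in the supernatant was quantified by ELISA (A450). The value is the concentration range giving ≥50% VEGF reduction versus untreated control.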
A general note: An ELISA detects its analyte on a solid surface through an enzyme-linked reagent.

[1] abbreviates: values marked * in the table, mixed hypoxic condition (1% oxygen + CoCl2) for 24 hours, read-out: IC50 HIF-1α, Hypoxia(24h).
The mark [2] stands for this setting: ARPE-19 cells, pretreated 2 hours, 24 hours hypoxic conditions, secreted VEGF in medium supernatant by ELISA, concentration range reducing VEGF by 50% vs untreated control, read-out: IC50 VEGF.
[3] abbreviates: mixed hypoxic condition (1% oxygen + CoCl2) for 1 hour, read-out: IC50 HIF-1α Hypoxia (1 hour).
Where [4] appears, read: ARPE-19 cells, pretreated 2 hours, 24 hours hypoxic conditions, ELISA, read-out: concentration at which the secreted VEGF protein level was suppressed to less than 50%.
Where [5] appears, read: Experimental Example 2 (HIF-1α Western blot), read-out: concentration at which the expression level of VEGF was suppressed to less than 50%.

Like-named read-outs stand apart in the source and are kept apart here.

T1 sequence (Q16665 whole entry): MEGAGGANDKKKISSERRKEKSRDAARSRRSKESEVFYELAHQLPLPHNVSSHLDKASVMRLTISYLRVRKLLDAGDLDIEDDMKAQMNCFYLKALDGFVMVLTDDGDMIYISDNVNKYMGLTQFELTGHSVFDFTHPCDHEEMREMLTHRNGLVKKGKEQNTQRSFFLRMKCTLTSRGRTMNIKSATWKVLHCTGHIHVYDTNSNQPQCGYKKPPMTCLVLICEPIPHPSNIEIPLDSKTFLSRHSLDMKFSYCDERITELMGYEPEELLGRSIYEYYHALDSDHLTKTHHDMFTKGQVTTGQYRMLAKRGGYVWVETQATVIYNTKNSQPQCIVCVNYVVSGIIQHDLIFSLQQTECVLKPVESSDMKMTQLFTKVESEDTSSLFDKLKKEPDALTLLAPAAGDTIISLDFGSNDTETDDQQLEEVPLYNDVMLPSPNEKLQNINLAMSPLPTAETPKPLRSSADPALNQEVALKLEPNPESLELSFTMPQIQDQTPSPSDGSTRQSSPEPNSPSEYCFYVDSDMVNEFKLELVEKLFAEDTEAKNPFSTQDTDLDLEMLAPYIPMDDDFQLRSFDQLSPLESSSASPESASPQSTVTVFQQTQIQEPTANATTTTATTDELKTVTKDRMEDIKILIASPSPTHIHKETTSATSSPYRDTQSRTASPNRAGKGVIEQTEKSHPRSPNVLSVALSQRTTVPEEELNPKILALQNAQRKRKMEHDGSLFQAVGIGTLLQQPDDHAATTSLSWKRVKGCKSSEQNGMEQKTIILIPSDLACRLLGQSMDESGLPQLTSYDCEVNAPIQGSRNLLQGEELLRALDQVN

As for `O=C(NCc1cccc(-c2cnn(-c3ccc(F)cc3)c2)c1)c1ncnc2nc(C3CCCC3)[nH]c12` [Example 57, 8-Cyclopentyl-N-(3-(1-(4-fluorophenyl)-1H-pyrazol-4-yl)benzyl)-7H-purine-6-carboxamide], the DC50 on HIF-1α (setting [1]) is less than 100 nM. For the same compound, the IC50 in the assay with VEGF (setting [2]) lay within 100 to 1000 nM.

Take `O=C(NCc1cc(F)cc(-c2cnn(-c3ccc(Cl)cc3)c2)c1)c1ncnc2nc(C3CCCC3)[nH]c12` [Example 58, N-(3-(1-(4-chlorophenyl)-1H-pyrazol-4-yl)-5-fluorobenzyl)-8-cyclopentyl-7H-purine-6-carboxamide]: the DC50 at HIF-1α (setting [1]) was less than 100 nM. Further, the IC50 in the assay on VEGF (setting [2]) was in the range of 100 to 1000 nM.

Consider `CS(=O)(=O)c1cc(Br)ccc1-n1cc(-c2cc(F)cc(CNC(=O)c3ncnc4nc(C5CCCC5)[nH]c34)c2)cn1` [Example 59, N-(3-(1-(4-bromo-2-(methylsulfonyl)phenyl)-1H-pyrazol-4-yl)-5-fluorobenzyl)-8-cyclopentyl-7H-purine-6-carboxamide], for which the DC50 at HIF-1α (setting [1]) fell in the range of 100 to 1000 nM. Besides, the IC50 in the assay with VEGF (setting [2]) is 100 to 1000 nM.

Consider `O=C(NCc1cc(F)cc(-c2cnn(-c3ccc(F)c(F)c3)c2)c1)c1ncnc2nc(C3CCCC3)[nH]c12` [Example 60, 8-Cyclopentyl-N-(3-(1-(3,4-difluorophenyl)-1H-pyrazol-4-yl)-5-fluorobenzyl)-7H-purine-6-carboxamide], for which the DC50 at HIF-1α (setting [1]) was less than 100 nM. Also, the IC50 with VEGF (setting [2]) was 100 to 1000 nM.

For `CN1CCC[C@H]1c1nc2ncnc(C(=O)NCc3cc(F)cc(-c4cnn(C)c4)c3)c2[nH]1` [Example 63, (S)-N-(3-fluoro-5-(1-methyl-1H-pyrazol-4-yl)benzyl)-8-(1-methylpyrrolidin-2-yl)-7H-purine-6-carboxamide], on HIF-1α (setting [3]), the DC50 fell in the range of 100 to 1000 nM. In addition, in the assay with VEGF (setting [2]), the IC50 lay within 1000 to 10000 nM.

Turning to `CN1CCC[C@@H]1c1nc2ncnc(C(=O)NCc3cc(F)cc(-c4cnn(C)c4)c3)c2[nH]1` [Example 66, (R)-N-(3-fluoro-5-(1-methyl-1H-pyrazol-4-yl)benzyl)-8-(1-methylpyrrolidin-2-yl)-7H-purine-6-carboxamide], the DC50 at HIF-1α (setting [3]) was less than 100 nM. Besides, the IC50 in the assay with VEGF (setting [2]) is 1000 to 10000 nM.

For the compound `Cn1cc(-c2cc(F)cc(CNC(=O)c3ncnc4nc(C5CC6C(C5)C6(F)F)[nH]c34)c2)cn1` (centres unmarked) [Example 77, 8-(6,6-Difluorobicyclo[3.1.0]hexan-3-yl)-N-(3-fluoro-5-(1-methyl-1H-pyrazol-4-yl)benzyl)-7H-purine-6-carboxamide], the DC50 at HIF-1α (setting [3]) was 100 to 1000 nM. In addition, the IC50 with VEGF (setting [2]) is 1000 to 10000 nM.

On to `Cn1cc(-c2cc(F)cc(CNC(=O)c3ncnc4nc(C5CC6CC6C5)[nH]c34)c2)cn1` (centres unmarked) [Example 78, 8-(Bicyclo[3.1.0]hexan-3-yl)-N-(3-fluoro-5-(1-methyl-1H-pyrazol-4-yl)benzyl)-7H-purine-6-carboxamide], for which the DC50 on HIF-1α (setting [1]) was less than 100 nM. In addition, the IC50 in the assay on VEGF (setting [2]) fell in the range of 100 to 1000 nM.

On to `O=C(NCc1cc(F)cc(-c2cnn(-c3ccc(F)cc3)c2)c1)c1ncnc2nc(C3CCC(F)(F)C3)[nH]c12` (centres unmarked) [Example 80, 8-(3,3-Difluorocyclopentyl)-N-(3-fluoro-5-(1-(4-fluorophenyl)-1H-pyrazol-4-yl)benzyl)-7H-purine-6-carboxamide], for which, at HIF-1α (setting [1]), the DC50 was less than 100 nM. For the same compound, the IC50 with VEGF (setting [2]) was less than 100 nM.

For `O=C(NCc1cc(F)cc(-c2cnn(-c3cccc(F)c3)c2)c1)c1ncnc2nc(C3CCC(F)(F)C3)[nH]c12` (centres unmarked) [Example 81, 8-(3,3-Difluorocyclopentyl)-N-(3-fluoro-5-(1-(3-fluorophenyl)-1H-pyrazol-4-yl)benzyl)-7H-purine-6-carboxamide], on HIF-1α (setting [1]), the DC50 is less than 100 nM. Moreover, the IC50 in the assay on VEGF (setting [2]) lay within 100 to 1000 nM.

Regarding `O=C(NCc1cc(F)cc(-c2cnn(-c3ccc(F)nc3)c2)c1)c1ncnc2nc(C3CCC(F)(F)C3)[nH]c12` (centres unmarked) [Example 82, 8-(3,3-Difluorocyclopentyl)-N-(3-fluoro-5-(1-(6-fluoropyridin-3-yl)-1H-pyrazol-4-yl)benzyl)-7H-purine-6-carboxamide], the DC50 on HIF-1α (setting [1]) was less than 100 nM. For the same compound, the IC50 in the assay on VEGF (setting [4]), in the assay with VEGF (setting [2]) and in the assay on VEGF (setting [5]) was less than 100 nM throughout.

As for `O=C(NCc1cc(F)cc(-c2cnn(-c3cccnc3)c2)c1)c1ncnc2nc(C3CCC(F)(F)C3)[nH]c12` (centres unmarked) [Example 83, 8-(3,3-Difluorocyclopentyl)-N-(3-fluoro-5-(1-(pyridin-3-yl)-1H-pyrazol-4-yl)benzyl)-7H-purine-6-carboxamide], the DC50 at HIF-1α (setting [1]) was less than 100 nM. Besides, the IC50 in the assay on VEGF (setting [4]), with VEGF (setting [2]) and in the assay with VEGF (setting [5]) was less than 100 nM throughout.

Take `O=C(NCc1cc(F)cc(-c2cnn(-c3ccc(F)cc3)c2)c1)c1ncnc2nc([C@H]3CCCO3)[nH]c12` [Example 85, (R)-N-(3-fluoro-5-(1-(4-fluorophenyl)-1H-pyrazol-4-yl)benzyl)-8-(tetrahydrofuran-2-yl)-7H-purine-6-carboxamide]: on HIF-1α (setting [1]), the DC50 was less than 100 nM. The IC50 in the assay with VEGF (setting [2]) fell in the range of 1000 to 10000 nM.

`O=C1CC[C@@H](c2nc3ncnc(C(=O)NCc4cc(F)cc(-c5cnn(-c6ccc(F)cc6)c5)c4)c3[nH]2)C1` [Example 86, (R)-N-(3-fluoro-5-(1-(4-fluorophenyl)-1H-pyrazol-4-yl)benzyl)-8-(3-oxocyclopentyl)-7H-purine-6-carboxamide]: the DC50 on HIF-1α (setting [1]) fell in the range of 100 to 1000 nM. For the same compound, the IC50 with VEGF (setting [2]) is 100 to 1000 nM.

With `O=C(NCc1cc(F)cc(-c2cnn(-c3ccc(F)c(Cl)c3)c2)c1)c1ncnc2nc(C3CCCC3)[nH]c12` [Example 87, N-(3-(1-(3-chloro-4-fluorophenyl)-1H-pyrazol-4-yl)-5-fluorobenzyl)-8-cyclopentyl-7H-purine-6-carboxamide], the DC50 on HIF-1α (setting [1]) was less than 100 nM. Besides, in the assay with VEGF (setting [2]), the IC50 was in the range of 100 to 1000 nM.

Regarding `O=C1CC[C@H](c2nc3ncnc(C(=O)NCc4cc(F)cc(-c5cnn(-c6ccc(F)cc6)c5)c4)c3[nH]2)C1` [Example 88, (S)-N-(3-fluoro-5-(1-(4-fluorophenyl)-1H-pyrazol-4-yl)benzyl)-8-(3-oxocyclopentyl)-7H-purine-6-carboxamide], at HIF-1α (setting [1]), the DC50 lay in the range of 100 to 1000 nM. For the same compound, the IC50 in the assay on VEGF (setting [2]) lay in the range of 100 to 1000 nM.

Consider `O=C(NCc1cc(F)cc(-c2cnn(-c3ccc(F)cc3)c2)c1)c1ncnc2nc(C3CC(F)(F)C3)[nH]c12` [Example 92, 8-(3,3-Difluorocyclobutyl)-N-(3-fluoro-5-(1-(4-fluorophenyl)-1H-pyrazol-4-yl)benzyl)-7H-purine-6-carboxamide], for which the DC50 at HIF-1α (setting [1]) was in the range of 100 to 1000 nM. Further, the IC50 in the assay with VEGF (setting [2]) was 100 to 1000 nM.

For the compound `O=C(NCc1cc(F)cc(-c2cnn(-c3ccc(F)cc3)c2)c1)c1nccc2nc(C3CCCC3)[nH]c12` [Example 93, 2-Cyclopentyl-N-(3-fluoro-5-(1-(4-fluorophenyl)-1H-pyrazol-4-yl)benzyl)-3H-imidazo[4,5-c]pyridine-4-carboxamide], the DC50 at HIF-1α (setting [1]) is less than 100 nM. Also, in the assay on VEGF (setting [2]), the IC50 was in the range of 100 to 1000 nM.

For the compound `O=C(NCc1cccc(-c2cnn(-c3ccc(F)cc3)c2)c1F)c1ncnc2nc(C3CCCC3)[nH]c12` [Example 95, 8-Cyclopentyl-N-(2-fluoro-3-(1-(4-fluorophenyl)-1H-pyrazol-4-yl)benzyl)-7H-purine-6-carboxamide], the DC50 on HIF-1α (setting [1]) lay within 100 to 1000 nM. Besides, the IC50 in the assay with VEGF (setting [2]) was in the range of 100 to 1000 nM.

Consider `CC1(C)CC(c2nc3ncnc(C(=O)NCc4cc(F)cc(-c5cnn(-c6ccc(F)cc6)c5)c4)c3[nH]2)C1` [Example 97, 8-(3,3-Dimethylcyclobutyl)-N-(3-fluoro-5-(1-(4-fluorophenyl)-1H-pyrazol-4-yl)benzyl)-7H-purine-6-carboxamide], for which the DC50 on HIF-1α (setting [1]) lay in the range of 100 to 1000 nM. The IC50 in the assay with VEGF (setting [2]) is 100 to 1000 nM.
